These results are taken from US4217366A, “Pharmaceutically active 2-(4-aminobutoxy)stilbenes” (Mitsubishi Chemical Industries, Ltd., priority 1978, dated 1980).

What is called ED50 is the dose that gives a 50% effect, or the effect in half of the subjects. Low readings indicate greater potency, high ones weaker potency. As usually defined, the LD50 is the dose at which mortality reaches 50%. The term inhibition denotes the change of the read-out against control, counted positive when it falls. A high value points to a response far below the control.

Each structure is given as a SMILES string. Where only a bound is given, the exact number is not on record here.

The conditions of data set [1]: in vivo. The method, then:
(§1) LD50 was calculated by the method of Litchfield-Wilcoxon (J. T. Litchfield and F. Wilcoxon, J. Pharmacol. exp. Therap., 96 99 (1949)).

The subject of data set [2] is pentylenetetrazol (PTZ) convulsion. In words: Anti-PTZ action: protection against tonic extensor (TE) induced by intraperitoneal pentylenetetrazol (100 mg/kg i.p.). It counts as in vivo, ddy strain male mice. As to conditions: for ED50 / inhibition at 50 mg/kg: Mus musculus; for inhibition at 50 mg/kg: at 50 mg/kg po (given as <50*). The procedure: (§2) Animals used were ddy strain male mice (20-22 g) and Wistar strain male rats (150-170 g). Anticonvulsant actions were determined by the ability of the compounds to prevent pentylenetetrazol (PTZ) convulsion and maximal electroshock seizure (MES), using 8 mice per group. Anti-PTZ action was judged by the protection against tonic extensor (TE) induced by intraperitoneal injection of PTZ (100 mg/kg i.p.) (K. Nakamura et al., Arch. int. Pharmacodyn., 156 261 (1965)). The results were expressed as 50% effective dose (ED50, mg/kg po) or an inhibition percentage at certain doses used.

Data set [3] is described as follows: LD50 in mice, method of Litchfield-Wilcoxon. As to conditions: mouse, in vivo, po. Format: in vivo. The procedure: (§3) Animals used were ddy strain male mice (20-22 g) and Wistar strain male rats (150-170 g).
as §1

Data set [4] is described as follows: LD50 in rats, method of Litchfield-Wilcoxon. The method, then:
as §3, §1

For data set [5], the system named is maximal electroshock seizure (MES). As to the kind of experiment: Anti-MES action: protection against tonic extensor (TE) induced by electroshock via a pair of ear electrodes. It counts as in vivo, ddy strain male mice. The method, then: Animals used were ddy strain male mice (20-22 g) and Wistar strain male rats (150-170 g). Anticonvulsant actions were determined by the ability of the compounds to prevent pentylenetetrazol (PTZ) convulsion and maximal electroshock seizure (MES), using 8 mice per group. Anti-MES action was also judged by the protection against TE induced by electroshock via a pair of ear electrodes ([…] al., J. Pharmacol. exp. Therap., 127 55 (1959)). The results were expressed as 50% effective dose (ED50, mg/kg po) or an inhibition percentage at certain doses used.

Data set [6] deals with maximal electroshock seizure (MES) and pentylenetetrazol (PTZ) convulsion. As to the kind of experiment: antiepileptic efficacy (anti-MES and anti-PTZ) compared with trimethadione and methotoin. As to conditions: from Table 2. Format: in vivo, ddy strain male mice. The procedure: as §2, with “(1965)). Anti-MES action was also judged by the protection against TE induced by electroshock via a pair of ear electrodes ([…] al., J. Pharmacol. exp. Therap., 127 55 (1959)).” for “(1965)).”

The subject of a further data set is grand-mal seizure. As to conditions: well known antiepileptic agent; cited from earlier work.
The subject of a further data set is Mice. As to the kind of experiment: LD50 in mice, method of Litchfield-Wilcoxon. Format: in vivo. As to conditions: mice, po. The method, then: as §3, §1
The next data set has as its system Rat. As to conditions: po, from "Iyakuhin Kenkyuho" (page 258), Asakura Shoten (1968); cited from earlier work.
Another data set relates to peti-mal seizure. As to conditions: well known antiepileptic agent; cited from earlier work.
Where [7] appears, read: 50% effective dose, po, PTZ 100 mg/kg i.p., 8 mice per group.
[8] abbreviates: Mus musculus, 50% effective dose, po, 8 mice per group.

Consider `CN(C)CCCCOc1ccccc1C=Cc1ccccc1.Cl` [Example 1, 2-(4-dimethylaminobutoxy)stilbene hydrochloride], for which, in [1], the level of toxicity result was “low level of toxicity”. Also, the values for the median effective dose (ED50) in data set [2] (setting [7]) and in data set [5] (setting [8]) were 17.8 mg/kg and 38 mg/kg, respectively. The LD50 in data set [3] (mice) was 1300 mg/kg; in [4] (in vivo; rat, po) it was 2000 mg/kg. In [6], the antiepileptic efficacy result was “much greater than that of trimethadione and methotoin”.

As to `CCC1(c2ccccc2)NC(=O)N(C)C1=O` (stereo not drawn) [Methotoin, reference compound], the “effectiveness against grand-mal seizure” value in the data set with grand-mal seizure is “effective against grand-mal seizure”. In data set [2] (setting [7]), the “ED50 Anti-PTZ” value is 51.9 mg/kg PO. The “LD50 Mice” value in the data set with Mice worked out at 475 mg/kg PO. Moreover, the “ED50 Anti-MES” value in data set [5] (50% effective dose, po, 8 mice per group) is given as 91.3 mg/kg PO. In addition, the “LD50 Rat (literature)” value in the data set with Rat is recorded as 2,500 mg/kg PO.

On to `CN1C(=O)OC(C)(C)C1=O` [Trimethadione, reference compound], for which the 50% effective dose (ED50) in data set [2] (setting [7]) turned out to be 230 mg/kg; in data set [5] (setting [8]), 1180 mg/kg. The molecule further had an LD50 in data set [3] (mice) of 2200 mg/kg. Also, the “effectiveness against peti-mal seizure” value with peti-mal seizure is on record as “effective against peti-mal seizure”.

As to `CNCCCCOc1ccccc1C=Cc1ccccc1` [compound 2], the ED50 was found to be 22.5 mg/kg in data set [2] (setting [7]) and 60 mg/kg in data set [5] (setting [8]). The same molecule returned an LD50 in data set [3] (mice) of 839 mg/kg.

Turning to `CN1CCN(CCCCOc2ccccc2C=Cc2ccccc2)CC1` [compound 3], the level of toxicity entry in [1] is listed as “low level of toxicity”. The ED50 is 21.1 mg/kg in [2] (setting [7]) and 35.5 mg/kg in data set [5] (setting [8]). Besides, the 50% lethal dose (LD50) in data set [3] worked out at 1050 mg/kg; in [4] (rat, in vivo, po), 2300 mg/kg. Also, the antiepileptic efficacy entry in [6] was “much greater than that of trimethadione and methotoin”.

Consider `OCCN1CCN(CCCCOc2ccccc2C=Cc2ccccc2)CC1` [compound 4], for which the ED50 was 16.3 mg/kg in [2] (setting [7]) and 76.1 mg/kg in data set [5] (setting [8]). The molecule further yielded a 50% lethal dose (LD50) in [3] (mice) of 1050 mg/kg.

Take `C(=Cc1ccccc1OCCCCN1CCCCC1)c1ccccc1` [compound 5]: the results for the ED50 in data set [2] (setting [7]) and in [5] (setting [8]) were below 50 mg/kg and 60 mg/kg, respectively. For the same molecule, in data set [2], the inhibition at 50 mg/kg was 100%. Further, the LD50 in data set [3] (mice) was 621 mg/kg.

Consider `OC1CCCN(CCCCOc2ccccc2C=Cc2ccccc2)C1` (stereo not drawn) [compound 6], for which the results for the ED50 in data set [2] (setting [7]) and in data set [5] (setting [8]) were 14 mg/kg and 20 mg/kg, respectively. In [3] (mice), this molecule displayed an LD50 of 415 mg/kg. Also, the antiepileptic efficacy entry in [6] is “much greater than that of trimethadione and methotoin”.

As for `C(=Cc1ccccc1OCCCCN1CCCC1)c1ccccc1` [compound 7], the figures for the median effective dose (ED50) in data set [2] (setting [7]) and in data set [5] (setting [8]) were below 50 mg/kg and 65 mg/kg, respectively. The molecule further returned an inhibition at 50 mg/kg in data set [2] of 87.5%. The same molecule yielded an LD50 in data set [3] (mice) of 600 mg/kg.

`CCCN1CCN(CCCCOc2ccccc2C=Cc2ccccc2)CC1` [compound 8] registered an ED50 in data set [2] (setting [7]) below 50 mg/kg. In addition, the inhibition at 50 mg/kg in data set [2] was 85%; in [5] (Mus musculus, at 50 mg/kg po) it was 40%.
